Laboratory results published in US9758495B2, “Heteroaryl acid morpholinone compounds as MDM2 inhibitors for the treatment of cancer” (AMGEN INC., priority 2013, dated 2017).

Target: GST-hMDM2 (aa 1-188) / biotinylated-p53 (aa 1-83) (Homo sapiens (Human), UniProt Q00987)
Assay: Homogenous Time-Resolved Fluorescence Assay (HTRF2 assay), inhibition of HDM2-p53 interaction
Type: binding
Conditions: 0.2 nM GST-hMDM2 (1-188), 0.5 nM biotinylated-p53 (1-83), 0.18 nM SA-XLent, 100 mM KF
Protocol: Residues 1-83 of human p53 were expressed as an amino-terminal AviTag™-TrxA-6×His fusion protein (biotinylated p53) in E. coli. Each protein was purified from cell paste by affinity chromatography.
Specifically, 10 uL of GST-hMDM2 was incubated with 10 ul of diluted compound (various concentrations, serially diluted) in 10% DMSO for 20 minutes at room temperature. 20 uL of biotinylated-p53 was added to the GST-hMDM2+compound mixture, and then incubated at room temperature for 60 min. 10 uL of detection buffer consisting of SA-XLent, anti-GST cryptate antibody and KF was added to GST-hMDM2, biotinylated-p53 and compound reaction and left at room temperature to reach equilibrium for >4 hrs. The final concentration of DMSO in the reaction was 2%. Time-resolved fluorescence readings were measured on a microplate multilabel reader. Percentage of inhibition was calculated relative to nutlin-3.

GST-hMDM2 (aa 1-188) / biotinylated-p53 (aa 1-83), sequence (Q00987 1-188): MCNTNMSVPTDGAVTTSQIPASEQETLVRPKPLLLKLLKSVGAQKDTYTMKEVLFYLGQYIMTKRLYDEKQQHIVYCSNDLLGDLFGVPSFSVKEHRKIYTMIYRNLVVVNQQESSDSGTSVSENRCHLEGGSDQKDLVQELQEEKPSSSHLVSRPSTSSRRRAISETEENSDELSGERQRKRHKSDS

Q: Which IC50 does the source give for CC(C)(C)S(=O)(=O)C[C@H](C1CC1)N1C(=O)[C@@](C)(Cc2ncc(C(=O)O)s2)O[C@H](c2cccc(Cl)c2)[C@H]1c1ccc(Cl)c(F)c1 (single isomer, unassigned) [Example 5, 2-(((2R,5R,6R)-4-((S)-2-(tert-Butylsulfonyl)-1-cyclopropylethyl)-5-(4-chloro-3-fluorophenyl)-6-(3-chlorophenyl)-2-methyl-3-oxomorpholin-2-yl)methyl)thiazole-5-carboxylic acid or 2-(((2S,5R,6R)-4-((S)-2-(tert-butylsulfonyl)-1-cyclopropylethyl)-5-(4-chloro-3-fluorophenyl)-6-(3-chlorophenyl)-2-methyl-3-oxomorpholin-2-yl)methyl)thiazole-5-carboxylic acid] here?
A: 0.121 nM

Q: With CC(C)(C)S(=O)(=O)C[C@H](C1CC1)N1C(=O)[C@](C)(Cc2ccc(C(=O)O)c[n+]2[O-])O[C@H](c2cccc(Cl)c2)[C@H]1c1ccc(Cl)cc1 (single isomer, unassigned) [Example 3, 2-(((2S,5R,6R)-4-((S)-2-(tert-Butylsulfonyl)-1-cyclopropylethyl)-6-(3-chlorophenyl)-5-(4-chlorophenyl)-2-methyl-3-oxomorpholin-2-yl)methyl)-5-carboxypyridine 1-oxide or 2-(((2R,5R,6R)-4-((S)-2-(tert-Butylsulfonyl)-1-cyclopropylethyl)-6-(3-chlorophenyl)-5-(4-chlorophenyl)-2-methyl-3-oxomorpholin-2-yl)methyl)-5-carboxypyridine 1-oxide] as the molecule, how does the IC50 read?
A: 0.23 nM

Q: With CC(C)(C)S(=O)(=O)C[C@H](C1CC1)N1C(=O)[C@@](C)(Cc2ccc(C(=O)O)c[n+]2[O-])O[C@H](c2cccc(Cl)c2)[C@H]1c1ccc(Cl)cc1 (single isomer, unassigned) [Example 4, 2-(((2R,5R,6R)-4-((S)-2-(tert-butylsulfonyl)-1-cyclopropylethyl)-6-(3-chlorophenyl)-5-(4-chlorophenyl)-2-methyl-3-oxomorpholin-2-yl)methyl)-5-carboxypyridine 1-oxide or 2-(((2S,5R,6R)-4-((S)-2-(tert-butylsulfonyl)-1-cyclopropylethyl)-6-(3-chlorophenyl)-5-(4-chlorophenyl)-2-methyl-3-oxomorpholin-2-yl)methyl)-5-carboxypyridine 1-oxide] as the molecule, how does the IC50 read?
A: 1.85 nM

Q: How did the IC50 turn out when CC(C)(C)S(=O)(=O)C[C@H](C1CC1)N1C(=O)[C@@](C)(Cc2ccc(C(=O)O)cn2)O[C@H](c2cccc(Cl)c2)[C@H]1c1ccc(Cl)c(F)c1 (single isomer, unassigned) [Example 6, 6-(((2R,5R,6R)-4-((S)-2-(tert-Butylsulfonyl)-1-cyclopropylethyl)-5-(4-chloro-3-fluorophenyl)-6-(3-chlorophenyl)-2-methyl-3-oxomorpholin-2-yl)methyl)nicotinic acid or 6-(((2S,5R,6R)-4-((S)-2-(tert-butylsulfonyl)-1-cyclopropylethyl)-5-(4-chloro-3-fluorophenyl)-6-(3-chlorophenyl)-2-methyl-3-oxomorpholin-2-yl)methyl)nicotinic acid] was run?
A: 0.11 nM

Q: For CC(C)(C)S(=O)(=O)C[C@H](C1CC1)N1C(=O)[C@@](C)(Cc2ccc(C(=O)O)cn2)O[C@H](c2cccc(Cl)c2)[C@H]1c1ccc(Cl)c(F)c1 (single isomer, unassigned) [Example 7, 6-(((2R,5R,6R)-4-((S)-2-(tert-butylsulfonyl)-1-cyclopropylethyl)-5-(4-chloro-3-fluorophenyl)-6-(3-chlorophenyl)-2-methyl-3-oxomorpholin-2-yl)methyl)nicotinic acid or 6-(((2S,5R,6R)-4-((S)-2-(tert-butylsulfonyl)-1-cyclopropylethyl)-5-(4-chloro-3-fluorophenyl)-6-(3-chlorophenyl)-2-methyl-3-oxomorpholin-2-yl)methyl)nicotinic acid], which IC50 is on record?
A: < 0.1 nM
